From US7468194B1, “Preparations for the application of anti-inflammatory agents” (Euro-Celtique, S.A., priority 1999, dated 2008)

System: adult articular cartilage
Experiment: effect on cartilage of sesamoid bones, release of proteoglycan and COMP fragments
Type: cell-based, bovine
Conditions: 10 min treatment at 37° C., undiluted or diluted 1:10, 1:100, 1:1000 with Ringer's solution; compared with Ringer's solution control
Experimental: In an unpublished study, the effects of povidone iodine in non-liposomal form was studied on adult articular cartilage.
Sesamoid bones were dissected within 2-4 h after slaughter from bovine metacarpo-phalangeal joints of adult animals under aseptic conditions. The cartilage from sesamoid bones of a particular animal is uniform with respect to glycosaminoglycan synthesis, glycosaminoglycan content, and proteoglycan composition. Each experimental group consisted of eight sesamoid bones from the same animal. The sesamoid bones were washed in 10 ml cold sterile Ringer's solution for 10 min, incubated respectively in 10 ml of sterile Ringer's solution (control), PVP-iodine, or PVP-iodine dilutions with Ringer's solution (1:10, 1:100, or 1:1000) at 37° C. for 10 min in a humidified atmosphere of 5% CO2 in air, and subsequently washed again for 5×5 min in 10 ml Ringer's solution in each case. […] The culture media of sesamoid bones and extracts of cartilage plugs were used for the quantitative and qualitative characterization of proteoglycans and COMP (cartilage oligomeric matrix protein), because an increased release of fragments of these cartilage matrix constituents equals to a catabolic pathway.

Substance: poly(1-vinyl-2-pyrrolidin-2-one)-iodine complex [PVP-iodine]
- proteolytic fragmentation of cartilage matrix constituents (proteoglycans, COMP): no increased proteolytic fragmentation
